Assay results: US20100210538A1, “THERAPEUTIC USES OF INTERMEDIN 47 AND 53 PEPTIDES” (priority 2007, published 2010)
Ends that are not written are not given here.

Tests used:
[1] = test system: HCMV strain AD169; assay: HCMV plaque formation assay in MRC-5 cells; conditions: for inhibition of HCMV plaque formation as compared to the virus control experiment: 10 micrograms per ml, 7-10 days
Description: Cells were split twic a week 1:2.
Ganciclovir was used as positive control.

[2] = test system: HIV-1IIIB
[3] = test system: spleen cells of Ovalbumin-immunized Balb/c mice; assay: Th1/Th2 cytokine profiling assay (Mouse Th1/Th2 Cytokine CBA Kit); type: cell-based; conditions: 10 micrograms per ml; Ovalbumin restimulation, 72 hours
Description: The Balb/c mice (originated in 1923, it is a popular strain and is used in many different research disciplines. Also classified as an inbred from the production of 20 or more successive brother-sister matings, the Balb/c mouse is albino and small in size) were immunized on Days 1, 15, and 29 with Ovalbumin (Ovalbumin is the main protein found in egg white, commonly used to stimulate an immunological reaction in test animals) in PBS (5 micrograms/injection). On day 50, spleens of the mice were harvested (3 weeks after last boost with Ovalbumin). Cells were cultured (2×10^5/well in triplicate) and incubated with culture medium or test peptides—10 micrograms per ml—for 30 min. Thereafter, additional Ovalbumin was added to the cells at 10 micrograms/ml for in vitro restimulation of the cells. 72 hours later, cell supernatants were harvested and assayed using the Becton Dickinson Mouse Th1/Th2 Cytokine CBA Kit.

[4] = test system: RAW 264.7 cells; assay: Phagocytosis assay (Fluorescein-labeled Escherichia coli, flow cytometry); conditions: 10 micrograms per ml, Fluorescein-labeled E. coli, 60 min
[5] = test system: HUVEC; assay: Endothelial tube formation assay; type: cell-based, human; conditions: 10 micrograms per ml, 20 hours
Description: Positive control was vehicle only. […] Raw data were expressed as average tubule lenghs in pixels±standard deviation.

[6] = test system: hepatitis B virus (HBV) ayw strain; assay: HBV assay, secreted HBV DNA by TaqMan PCR in HepG2-2.2.15 cells; type: cell-based; conditions: 10 micrograms per ml, six days
Procedure: HepG2-2.2.15 is a stable cell line containing the hepatitis B virus (HBV) ayw strain genome (ATCC Cat. No. CRL-11997). […] After 16-24 hours the confluent monolayer of HepG2-2.2.15 cells was washed and the medium was replaced with complete medium containing test peptides-10 micrograms per ml—in duplicate. […] Three days later the culture medium was replaced with fresh medium containing the peptides. Six days following the initial administration of the peptides, the cell culture supernatants was collected, treated with pronase and DNAse and then used in a real-time quantitative TaqMan PCR assay. The PCR-amplified HBV DNA was detected in real-time by monitoring increases in fluorescence signals that result from the exonucleolytic degradation of a quenched fluorescence probe molecule that hybridizes to the mplified HBV DNA. For each PCR amplification, a standard curve was simultaneously generated using dilutions of purified HBV DNA. Antiviral activity was calculated from the reduction in HBV DNA levels (% virus control). A novel dye uptake assay was then employed to measure cell viability, which is used to calculate toxicity (% cell control).

[7] = test system: Primary Human endothelial cells (HUVEC); assay: Endothelial cell migration assay; type: cell-based; conditions: 10 micrograms per ml, 22 hours
Procedure: Thereafter, designated concentration of testing peptides—10 micrograms per ml—was added in duplicate wells.

## Nc1nc(O)c2ncn(COC(CO)CO)c2n1 [Ganciclovir, reference compound]
[1]; positive control, HCMV AD169
  antiviral activity of positive control compound (HCMV): expected levels of antiviral activity

## Cc1cn([C@H]2C[C@H](N=[N+]=[N-])[C@@H](CO)O2)c(=O)[nH]c1=O [AZT]
[2]
  antiviral activity of positive control compounds (HIV-1): expected levels of antiviral activity

## Thr-Gln-Ala-Gln-Leu-Leu-Arg-Val-Gly-Cys-Val-Leu-Gly-Thr-Cys-Gln-Val-Gln-Asn-Leu-Ser-His-Arg-Leu-Trp-Gln-Leu-Met-Gly-Pro-Ala-Gly-Arg-Gln-Asp-Ser-Ala-Pro-Val-Asp-Pro-Ser-Ser-Pro-His-Ser-Tyr-NH2 [peptide 2]
[3]
  IFNγ spleen cells; TH1 response (% of control): 19.1 % of control
  IL-2 spleen cells (% of control): 98.9 % of control
  IL-4 spleen cells; TH2 response (% of control): 0.0 % of control
  IL-5 spleen cells; TH2 response (% of control): 17.9 % of control
  TNF-a spleen cells; TH1 response (% of control): 66.7 % of control
[4]
  induction of phagocytosis as compared to the control experiment: 34.3%
[5]
  inhibition of the tube formation of human endothelial cells: 12%
[6]
  inhibition of HBV replication as compared to the virus control infection: no effect
[1]
  inhibition of HCMV plaque formation as compared to the virus control experiment: 0.7%
[7]
  induction of the migration of human endothelial cells: 19%

## His-Ser-Gly-Pro-Arg-Arg-Thr-Gln-Ala-Gln-Leu-Leu-Arg-Val-Gly-Cys-Val-Leu-Gly-Thr-Cys-Gln-Val-Gln-Asn-Leu-Ser-His-Arg-Leu-Trp-Gln-Leu-Met-Gly-Pro-Ala-Gly-Arg-Gln-Asp-Ser-Ala-Pro-Val-Asp-Pro-Ser-Ser-Pro-His-Ser-Tyr-NH2 (HSGPRRTQAQLLRVGCVLGTCQVQNLSHRLWQLMGPAGRQDSAPVDPSSPHSY-NH2; cysteine pairing not given here) [peptide 1]
[3]
  IFNγ spleen cells; TH1 response (% of control): 21.7 % of control
  IL-2 spleen cells (% of control): 75.6 % of control
  IL-4 spleen cells; TH2 response (% of control): 166.9 % of control
  IL-5 spleen cells; TH2 response (% of control): 34.5 % of control
  TNF-a spleen cells; TH1 response (% of control): 70.0 % of control
[4]
  induction of phagocytosis as compared to the control experiment: did not induce phagocytosis
[5]
  inhibition of the tube formation of human endothelial cells: 19%
[1]
  inhibition of HCMV plaque formation as compared to the virus control experiment: 1.8%
[7]
  inhibition of the migration of endothelial cells: 8%

## CC(C)(C)NC(=O)[C@@H]1CN(Cc2cccnc2)CCN1C[C@@H](O)C[C@@H](Cc1ccccc1)C(=O)N[C@H]1c2ccccc2C[C@H]1O [indinavir]
[2]
  antiviral activity of positive control compounds (HIV-1): expected levels of antiviral activity
